How the values were obtained:
[1] = biological target: Prostaglandin G/H synthase 1 (Homo sapiens, UniProt P23219)
[2] = biological target: T1, Prostaglandin G/H synthase 2 (Homo sapiens, UniProt P35354)
T1 sequence (P35354 whole entry): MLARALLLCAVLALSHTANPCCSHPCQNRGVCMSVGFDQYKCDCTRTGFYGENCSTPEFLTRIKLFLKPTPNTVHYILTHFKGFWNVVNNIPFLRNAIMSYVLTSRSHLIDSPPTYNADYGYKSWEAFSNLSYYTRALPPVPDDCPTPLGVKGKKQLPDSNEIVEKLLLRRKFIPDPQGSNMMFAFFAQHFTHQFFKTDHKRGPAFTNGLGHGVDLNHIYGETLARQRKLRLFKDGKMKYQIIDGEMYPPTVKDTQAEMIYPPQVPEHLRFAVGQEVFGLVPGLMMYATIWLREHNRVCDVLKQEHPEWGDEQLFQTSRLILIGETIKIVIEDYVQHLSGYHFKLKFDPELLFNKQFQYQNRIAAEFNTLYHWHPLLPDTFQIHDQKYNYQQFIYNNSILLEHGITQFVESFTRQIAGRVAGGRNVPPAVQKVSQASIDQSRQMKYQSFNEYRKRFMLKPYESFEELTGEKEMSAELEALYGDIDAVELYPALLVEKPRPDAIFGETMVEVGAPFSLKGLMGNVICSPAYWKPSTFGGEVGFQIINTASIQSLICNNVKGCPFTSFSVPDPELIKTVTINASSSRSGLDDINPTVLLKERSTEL

[3] = Inhibition of cyclooxygenase
[4] = Selectivity for COX1 over COX2
[5] = Inhibition of mouse COX2 R120A mutant
[6] = Inhibition of mouse COX2 Y355F mutant
[7] = Inhibition of mouse COX2 S530A mutant
Mus musculus [8] = organism: Mus musculus; assay: Inhibition of mouse COX2 V349L mutant
Mus musculus [9] = organism: Mus musculus; assay: Inhibition of mouse COX2 V349A mutant

Prostaglandin G/H synthase 1, sequence (P23219 whole entry): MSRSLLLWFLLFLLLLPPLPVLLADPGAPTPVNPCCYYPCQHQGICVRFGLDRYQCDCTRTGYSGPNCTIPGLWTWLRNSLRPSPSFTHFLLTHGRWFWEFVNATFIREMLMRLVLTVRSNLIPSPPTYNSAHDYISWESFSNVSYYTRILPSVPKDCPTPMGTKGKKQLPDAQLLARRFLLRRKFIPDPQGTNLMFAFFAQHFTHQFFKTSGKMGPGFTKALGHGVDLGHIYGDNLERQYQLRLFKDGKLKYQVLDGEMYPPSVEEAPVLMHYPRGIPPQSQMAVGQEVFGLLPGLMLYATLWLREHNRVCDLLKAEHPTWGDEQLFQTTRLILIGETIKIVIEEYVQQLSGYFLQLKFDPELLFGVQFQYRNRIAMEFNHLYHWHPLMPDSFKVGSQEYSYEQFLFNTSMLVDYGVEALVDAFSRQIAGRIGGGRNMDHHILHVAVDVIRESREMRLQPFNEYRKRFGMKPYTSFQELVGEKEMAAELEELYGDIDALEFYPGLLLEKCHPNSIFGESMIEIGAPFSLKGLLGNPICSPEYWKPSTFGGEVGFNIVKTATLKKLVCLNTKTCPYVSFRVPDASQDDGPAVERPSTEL

Row | IC50 [1] [µM] | IC50 [2] [µM] | SMILES | also measured
1 | > 66 | – | COc1ccc2c(c1)c(CC(=O)OCCc1ccccc1)c(C)n2C(=O)c1ccc(Cl)cc1 | –
2 | > 10 | 0.007 | Cc1ccc(Nc2c(F)cccc2Cl)c(CC(=O)O)c1 [LUMIRACOXIB] | –
3 | > 66 | – | COc1ccc2c(c1)c(CCOC(=O)c1ccc(Cl)cc1)c(C)n2Cc1ccc(Br)cc1 | –
4 | – | – | CC(=O)Oc1ccccc1C(=O)O [ASPIRIN] | Ki [3]: 20000 µM; Selectivity ratio [4]: 10
5 | 7.7 | 0.1 | CCOc1cccc(OCC)c1-c1ccc(C(C)C(=O)O)cc1F (configuration not stated) | –
6 | > 1 | 0.1 | C/C(=N/OCc1ccccc1Nc1c(Cl)cccc1Cl)C(=O)O | –
7 | – | – | O=C(O)Cc1ccccc1Nc1c(Cl)cccc1Cl [DICLOFENAC] | IC50 [5]: 0.257 µM; IC50 [6]: 0.137 µM; IC50 [7]: > 50 µM
8 | > 66 | – | COc1ccc2c(c1)c(CC(=O)NCCc1ccccc1)c(C)n2C(=O)c1ccc(Cl)cc1 | –
9 | > 66 | – | COc1ccc2c(c1)c(CCNC(=O)c1ccc(Cl)cc1)c(C)n2Cc1ccc(Br)cc1 | –
10 | – | – | COc1ccc2c(c1)c(CC(=O)O)c(C)n2C(=O)c1ccc(Cl)cc1 | Activity (Mus musculus [8]): 4 µM; Activity (Mus musculus [9]): 0.08 µM

Source: ChEMBL document CHEMBL1141454, “Structural and functional basis of cyclooxygenase inhibition” (J Med Chem, 2007)
